The subject of one data set is HBV. The data set can be described thus: Anti-HBV activity in HepG2.2.15 cells (HBV DNA in culture medium by qPCR). The note with it: Hepatitis B virus, HepG2.2.15, 144 h, HepG2.2.15 cells, 6 days treatment, HBV DNA in culture medium quantified by real-time PCR; read-out: EC50. Format: cell-based. On the procedure: Example 2: Anti-Viral Assay in HepG2.2.15 Cells
(§1) HepG2.2.15 (the HepG2.2.15 cell line can be produced by transfection of the HepG2 cell line as described in Sells, Chen, and Acs 1987 (Proc. Natl. Acad. Sci. USA 84: 1005-1009), and the HepG2 cell line is available from ATCC® under number HIB-8065™)
(§2) HepG2.2.15 cells were plated into 96-well plate in 2% FBS culture medium at the density of 40,000 cells/well and 5,000 cells/well for HBV inhibitory activity and cytotoxicity determination, respectively. After incubation at 37° C., 5% CO2 overnight, cells were treated with medium containing compounds for 6 days with medium and compounds refreshed after 3 days of treatment. Each compound was tested in a 1:3 serial dilutions at 8 different concentrations in triplicate. The highest concentration of the compounds was 10 uM or 1 uM for anti-HBV activity assay and 100 uM for cytotoxicity determination.
The change of HBV DNA level induced by the compounds was assessed by quantitative real-time polymerase chain reaction (qPCR). Briefly, the HBV DNA in the culture medium was extracted using QIAamp 96 DNA Blood Kit according to the manual and then quantified by real-time PCR assay using the primers and probe in the table 2 below.
(§3) 2) DATA Analysis EC50 and CC50 values are calculated by the GRAPTIPAD PRISM software.
A general note: In qPCR the cycle at which signal appears reflects the starting amount.

Data set [1] is described as follows: Cytotoxicity determination in HepG2.2.15 cells (CCK-8 cell viability). It is filed as cell-based. The conditions noted are these: human, 6 days treatment, CCK-8 assay, highest concentration 100 uM. On the procedure: as §1, §2
Cell viability was determined by CCK-8 assay. After 6 days of compounds treatment, 20 μl CCK-8 reagents were added to each well of cytotoxicity assay plates. Cell plates were incubated at 37° C., 5% CO2 for 2.5 h. The absorbance at 450 nm wavelength and the absorbance at 630 nm wavelength as reference was measured.
as §3
(In general: Tetrazolium dyes change colour on reduction, which living cells bring about.)

A word on the EC50: it is the concentration giving half of the maximal effect. As a reminder, the CC50 is the concentration that lowers cell viability or growth by half. High values mean lower toxicity to the cells, low ones greater toxicity to the cells.

`CCOC(=O)C1=C(CN2CC(F)(F)[C@H]3[C@@H]2CCN3CC(C)(C)C(=O)O)NC(c2nccs2)=N[C@H]1c1cccc(F)c1C` (relative stereo) [Compound 1A, 3-(4-(((S)-5-(ethoxycarbonyl)-6-(3-fluoro-2-methylphenyl)-2-(thiazol-2-yl)-3,6-dihydropyrimidin-4-yl)methyl)-6,6-difluorohexahydropyrrolo[3,2-b]pyrrol-1(2H)-yl)-2,2-dimethylpropanoic acid]: the EC50 in the data set on HBV worked out at 1.3 nM. This compound showed a CC50 at 6 days in data set [1] of 15000 nM.

As for `CCOC(=O)C1=C(CN2CC[C@]3(F)C(=O)N(CC(C)(C)C(=O)O)C[C@H]23)NC(c2nccs2)=N[C@H]1c1cccc(F)c1C` (relative stereo) [Compound 3B, 3-(1-(((S)-5-(ethoxycarbonyl)-6-(3-fluoro-2-methylphenyl)-2-(thiazol-2-yl)-3,6-dihydropyrimidin-4-yl)methyl)-3a-fluoro-4-oxohexahydropyrrolo[3,4-b]pyrrol-5(1H)-yl)-2,2-dimethylpropanoic acid], the EC50 with HBV is 38.7 nM. Besides, in data set [1], the CC50 at 6 days is 51800 nM.

Take `CCOC(=O)C1=C(CN2CC[C@H]3C(=O)N(CC(C)(C)C(=O)O)C(=O)[C@H]32)NC(c2nccs2)=N[C@H]1c1cccc(F)c1C` (relative stereo) [Compound 4A, 3-(1-(((S)-5-(ethoxycarbonyl)-6-(3-fluoro-2-methylphenyl)-2-(thiazol-2-yl)-3,6-dihydropyrimidin-4-yl)methyl)-4,6-dioxohexahydropyrrolo[3,4-b]pyrrol-5(1H)-yl)-2,2-dimethylpropanoic acid]: the EC50 in the data set on HBV was 6.3 nM. The compound further yielded a CC50 at 6 days in data set [1] of 32600 nM.

Turning to `CCOC(=O)C1=C(CN2CC(F)(F)[C@@H]3C(=O)N(CC(C)(C)C(=O)O)C[C@@H]32)NC(c2nccs2)=N[C@H]1c1cccc(F)c1C` (relative stereo) [Compound 5A, 3-(1-(((S)-5-(ethoxycarbonyl)-6-(3-fluoro-2-methylphenyl)-2-(thiazol-2-yl)-3,6-dihydropyrimidin-4-yl)methyl)-3,3-difluoro-4-oxohexahydropyrrolo[3,4-b]pyrrol-5(1H)-yl)-2,2-dimethylpropanoic acid], the EC50 in the data set on HBV worked out at 8.2 nM. In data set [1], this compound returned a CC50 at 6 days of 70400 nM.

As to `CCOC(=O)C1=C(CN2CC(F)(F)[C@H]3[C@@H]2CCN3CC2(C(=O)O)CC2)NC(c2nccs2)=N[C@H]1c1cccc(F)c1C` (relative stereo) [Compound 38A, 1-((4-(((S)-5-(ethoxycarbonyl)-6-(3-fluoro-2-methylphenyl)-2-(thiazol-2-yl)-3,6-dihydropyrimidin-4-yl)methyl)-6,6-difluorohexahydropyrrolo[3,2-b]pyrrol-1(2H)-yl)methyl)cyclopropane-1-carboxylic acid], the EC50 with HBV was 1.5 nM. The same compound displayed a CC50 at 6 days in data set [1] of 20000 nM.

As for `CCOC(=O)C1=C(CN2CC(F)(F)[C@H]3[C@@H]2CCN3C2CC(C(=O)O)C2)NC(c2nccs2)=N[C@H]1c1cccc(F)c1C` (relative stereo) [Compound 39A, 3-(4-(((S)-5-(ethoxycarbonyl)-6-(3-fluoro-2-methylphenyl)-2-(thiazol-2-yl)-3,6-dihydropyrimidin-4-yl)methyl)-6,6-difluorohexahydropyrrolo[3,2-b]pyrrol-1(2H)-yl)cyclobutane-1-carboxylic acid], the half-maximal effective concentration (EC50) in the data set with HBV was 2.4 nM. In data set [1], the CC50 at 6 days came to 35000 nM.

For the compound `CCOC(=O)C1=C(CN2CC(F)(F)[C@H]3[C@@H]2CCN3CC2(CC(=O)O)CC2)NC(c2nccs2)=N[C@H]1c1cccc(F)c1C` (relative stereo) [Compound 49, 2-(1-((4-(((S)-5-(ethoxycarbonyl)-6-(3-fluoro-2-methylphenyl)-2-(thiazol-2-yl)-3,6-dihydropyrimidin-4-yl)methyl)-6,6-difluorohexahydropyrrolo[3,2-b]pyrrol-1(2H)-yl)methyl)cyclopropyl)-acetic acid], the EC50 with HBV is 32.6 nM. Further, the CC50 at 6 days in data set [1] came to 25500 nM.

On to `CCOC(=O)C1=C(CN2CC(F)(F)[C@@H]3[C@H]2CN(C)N3CCC(C)(C)C(=O)O)NC(c2nccs2)=N[C@H]1c1cccc(F)c1C` (relative stereo) [Compound 68A, 4-(4-(((S)-5-(ethoxycarbonyl)-6-(3-fluoro-2-methylphenyl)-2-(thiazol-2-yl)-3,6-dihydropyrimidin-4-yl)methyl)-6,6-difluoro-2-methylhexahydropyrrolo[3,2-c]pyrazol-1(2H)-yl)-2,2-dimethylbutanoic acid], for which the EC50 with HBV was 7.4 nM. The same compound came in with a CC50 at 6 days in data set [1] of 22200 nM.

For `CCOC(=O)C1=C(CN2CC(F)(F)[C@@H]3[C@H]2CON3CCC(C)(C)C(=O)O)NC(c2nccs2)=N[C@H]1c1cccc(F)c1C` (relative stereo) [Compound 69A, 4-(4-(((S)-5-(ethoxycarbonyl)-6-(3-fluoro-2-methylphenyl)-2-(thiazol-2-yl)-3,6-dihydropyrimidin-4-yl)methyl)-6,6-difluorohexahydro-1H-pyrrolo[3,2-c]isoxazol-1-yl)-2,2-dimethylbutanoic acid], the EC50 in the data set on HBV is 0.7 nM. Moreover, in data set [1], the CC50 at 6 days amounted to 37000 nM.

In the case of `CCOC(=O)C1=C(CN2CC(F)(F)[C@H]3[C@@H]2CN(CC(C)(C)C(=O)O)N3C)NC(c2nccs2)=N[C@H]1c1cccc(F)c1C` (relative stereo) [Compound 87, 3-((cis)-4-(((S)-5-(ethoxycarbonyl)-6-(3-fluoro-2-methylphenyl)-2-(thiazol-2-yl)-3,6-dihydropyrimidin-4-yl)methyl)-6,6-difluoro-1-methylhexahydropyrrolo[3,2-c]pyrazol-2(1H)-yl)-2,2-dimethylpropanoic acid], the EC50 in the data set on HBV came out at 14 nM. This compound also returned a 50% cytotoxic concentration (CC50) at 6 days in data set [1] greater than 50000 nM.

Turning to `CCOC(=O)C1=C(CN2CC(F)(F)[C@H]3[C@@H]2CCN3CCC(C)(C)C(=O)O)NC(c2ncoc2C)=N[C@@H]1c1cccc(F)c1C` (relative stereo) [Compound 107, 4-(4-((5-(ethoxycarbonyl)-6-(3-fluoro-2-methylphenyl)-2-(5-methyloxazol-4-yl)-3,6-dihydropyrimidin-4-yl)methyl)-6,6-difluorohexahydropyrrolo[3,2-b]pyrrol-1(2H)-yl)-2,2-dimethylbutanoic acid], the EC50 in the data set with HBV came out at 11.3 nM. The CC50 at 6 days in data set [1] was 42500 nM.

`CCOC(=O)C1=C(CN2CC(F)(F)[C@H]3[C@@H]2CCN3CC[C@H]2C[C@@H]2C(=O)O)NC(c2nccs2)=N[C@H]1c1cccc(F)c1C` (relative stereo) [Compound 110, (trans)-2-(2-((cis)-4-(((S)-5-(ethoxycarbonyl)-6-(3-fluoro-2-methylphenyl)-2-(thiazol-2-yl)-3,6-dihydropyrimidin-4-yl)methyl)-6,6-difluorohexahydropyrrolo[3,2-b]pyrrol-1(2H)-yl)ethyl)cyclopropane-1-carboxylic acid]: in the data set on HBV, the EC50 stood at 0.6 nM. Further, the midpoint of cytotoxicity in data set [1], the CC50 at 6 days, lay at 23500 nM.

Take `CCOC(=O)C1=C(CN2CC(F)(F)[C@H]3[C@@H]2CCN3CCC(C)(C)C(=O)O)NC(c2nccs2)=N[C@@H]1c1ccc(F)nc1C` (relative stereo) [Compound 121, 4-((cis)-4-(((R)-5-(ethoxycarbonyl)-6-(6-fluoro-2-methylpyridin-3-yl)-2-(thiazol-2-yl)-3,6-dihydropyrimidin-4-yl)methyl)-6,6-difluorohexahydropyrrolo[3,2-b]pyrrol-1(2H)-yl)-2,2-dimethylbutanoic acid]: in the data set with HBV, the concentration for a half-maximal effect (EC50) amounted to 8.7 nM. The compound also yielded a CC50 at 6 days in data set [1] greater than 100000 nM.

The values above are taken from patent US20230083012A1, “DIHYDROPYRIMIDINE DERIVATIVES AND USES THEREOF IN THE TREATMENT OF HBV INFECTION OR OF HBV-INDUCED DISEASES” (priority 2019, published 2023).
